Consider ten compounds from US11098016B2, “Indazole derivatives useful as glucagon receptor antagonists” (JANSSEN PHARMACEUTICA NV, priority 2016, dated 2021).

T1 sequence (P47871 26-477): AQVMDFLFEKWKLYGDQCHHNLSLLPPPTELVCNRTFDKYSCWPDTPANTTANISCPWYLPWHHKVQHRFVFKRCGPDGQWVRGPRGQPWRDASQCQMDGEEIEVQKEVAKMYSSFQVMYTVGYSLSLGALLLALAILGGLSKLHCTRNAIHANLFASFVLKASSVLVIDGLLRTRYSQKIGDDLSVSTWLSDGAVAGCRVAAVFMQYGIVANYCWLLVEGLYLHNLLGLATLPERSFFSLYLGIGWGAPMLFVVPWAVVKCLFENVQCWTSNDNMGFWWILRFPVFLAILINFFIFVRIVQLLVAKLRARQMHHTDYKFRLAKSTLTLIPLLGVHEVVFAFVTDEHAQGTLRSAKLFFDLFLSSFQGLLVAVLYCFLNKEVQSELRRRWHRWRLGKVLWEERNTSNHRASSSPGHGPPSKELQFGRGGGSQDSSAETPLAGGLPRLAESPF

One experiment addresses T1, human GCGR (Homo sapiens, UniProt P47871).
T1 construct: expressed in transfected cells; host or cells: HEK293 (hGluc-1HEK), pcDNA3.1, G418 selection
The experiment is described as follows: Cellular functional assay, cAMP readout: inhibition of glucagon stimulated cAMP. Type of experiment: cell-based.
Conditions: not given
The procedure:
IC50 Values in Cellular Functional Assays: cAMP Readout
Full-length human GCGR (Accession Number: NM000160) subcloned into pcDNA3.1 was stably transfected into HEK293 cells (hGluc-1HEK) and maintained under G418 selection (500 μg/mL). Cell cultures were maintained in DMEM/F12 media supplemented with 10% FBS and 1% GlutaMax™ Supplement (Available from ThermoFisher Scientific, catalog #35050061). Glucagon stimulated cAMP was quantified using LANCE technology as per manufacturer instructions. On the day of the experiment, spent media was removed and cells were washed with Hank's Buffered Saline solution (HBSS), and cells harvested with non-enzymatic cell dissociation solution, then washed once with HBSS. Cells were re-suspended in stimulation buffer at a concentration of 0.83×10^6 cells/ml and cAMP detection antibody was added. 6 μl/well of this solution was then dispensed in a 384 well plate (cell density 5000 cells/well). Test compound was serially diluted in DMSO and 50 nl were dispensed on top of the cell solution and allowed to incubate for 30 minutes. 6 μl of a 2× glucagon solution (final concentration in assay 100 pM) was then added and the reaction was terminated after 5 minutes with the addition of detection mix. The resulting mixture was incubated, protected from light for 1.5 h. cAMP levels were quantified by TR-FRET in an EnVision instrument against a known standard. IC50's were generated by using a non-linear regression macro driven in Excel and converted to Ki values.
For orientation: Ki means the equilibrium dissociation constant of an inhibitor or competing ligand from its target. For the compound `CC(C)CC(c1ccc(CNCCC(=O)O)cc1)n1ncc2cc(-c3ccc(OC(F)(F)F)cc3)ccc21` (stereo not shown) [Compound 10, 3-((4-(3-Methyl-1-(5-(4-(trifluoromethoxy)phenyl)-1H-indazol-1-yl)butyl)benzyl)amino)propanoic Acid], the Ki turned out to be 285 nM. On the same count and under the same terms, in the case of `COc1ccc(-c2ccc3c(cnn3C(CC(C)C)c3ccc(CNCCC(=O)O)cc3)c2)cc1` (stereo not shown) [Compound 38, 3-((4-(1-(5-(4-Methoxyphenyl)-1H-indazol-1-yl)-3-methylbutyl)benzyl)amino)propanoic Acid] it was 650 nM; in that of `Cc1cc(C(F)(F)F)ccc1-c1ccc2c(cnn2C(CC(C)C)c2ccc(CNCCC(=O)O)cc2)c1` (stereo not shown) [Compound 84, 3-((4-(3-Methyl-1-(5-(2-methyl-4-(trifluoromethyl)phenyl)-1H-indazol-1-yl)butyl)benzyl)amino)propanoic Acid], 85 nM.

In turn, `O=C(O)CCNC(=O)c1ccc(C(CCc2ccccc2)n2cc3cc(-c4ccc(C(F)(F)F)cc4)ccc3n2)cc1` (stereo not shown) [Compound 104] returned a Ki of 145 nM.

For the compound `CC(C)CC(c1ccc(CNCCC(=O)O)cc1)n1ncc2cc(-c3cc(Cl)cc(Cl)c3)ccc21` (stereo not shown) [Compound 118, 3-((4-(1-(5-(3,5-Dichlorophenyl)-1H-indazol-1-yl)-3-methylbutyl)benzyl)amino)propanoic Acid], the Ki was determined as 2250 nM. On the same count and under the same terms, in the case of `O=C(O)CCNC(=O)c1ccc(C(CCc2ccccc2)n2ncc3cc(-c4ccc(C(F)(F)F)cc4)ccc32)cc1` (stereo not shown) [Compound 142] it was 850 nM; in that of `Cc1cc(Cl)ccc1-c1ccc2nn(C(CCC3CCCCC3)c3ccc(C(=O)NCCC(=O)O)nc3)cc2c1` (stereo not shown) [Compound 184], 71 nM. On the same count and under the same terms, in the case of `O=C(O)CCNC(=O)c1ccc(C(CCC2CCCCC2)n2cc3cc(-c4ccc(C(F)(F)F)cc4)ccc3n2)cn1` (stereo not shown) [Compound 186] it was 275 nM.

`COCCC(c1ccc(C(=O)NCCC(=O)O)cc1)n1cc2cc(-c3ccc(C(F)(F)F)cc3)ccc2n1` (stereo not shown) [Compound 202] showed a Ki of 1100 nM.

The subject of another experiment is glucagon receptor. The experiment in a line: Glucagon challenge in vivo assay measuring blood glucose (normal dog glucagon challenge test). The conditions noted are these: male beagle dogs; 10 mg/kg oral gavage. The procedure:
Glucagon Challenge In Vivo Assay Measuring Blood Glucose
The efficacy of a glucagon receptor antagonist was evaluated using a normal dog glucagon challenge test. Male beagle dogs were overnight fasted prior to the study. Test compound (at 3 mg/kg and 10 mg/kg for Compound #196 and at 10 mg/kg for Compounds #180, #248 and #253) or vehicle (0.5% hydroxypropyl methylcellulose) was dosed via oral gavage. Ninety minutes later, the dogs (1.5 years old, ˜9 Kg) were submitted to a glucagon challenge test by a single intramuscular injection of glucagon (Glucagon, rDNA origin, Eli Lilly, Indianapolis, Ind.) at dose of […]. Blood glucose levels were determined at times −10 min, 0 min (on challenge), 10 min, 20 min, 30 min, and 60 min after glucagon injection.
On to `Cc1c(-c2ccc(C(F)(F)F)cc2Cl)ccc2nn([C@@H](CC(C)C)c3ccc(C(=O)NCCC(=O)O)cc3)cc12` [Compound 180, 3-[[4-[(1S)-1-[5-[2-Chloro-4-(trifluoromethyl)phenyl]-4-methyl-indazol-2-yl]-3-methyl-butyl]benzoyl]amino]propanoic Acid], for which the “blood glucose levels during glucagon challenge time compared with vehicle treated group” value is on record as “markedly reduced blood glucose levels”.
